This note sets out measurements from ChEMBL document CHEMBL1126819, “Amino acid bioisosteres: design of 2-quinolone derivatives as glycine-site N-methyl-D-aspartate receptor antagonists” (Bioorg Med Chem Lett, 1993).

Data set [1] has as its target Glutamate NMDA receptor. It is filed as cell membranes, Rattus norvegicus, Membrane.
Description: Displacement of [3H]L-689,560 from NMDA receptor glycine site of rat brain membranes
The species named for data set [2] is Rattus norvegicus. The experiment in a line: Tested for ability to inhibit NMDA-induced depolarizations in rat cortical slices. Format: functional.
Data set [3] is described as follows: Dissociation constant pKa was determined. Format: physicochemical.

`O=C1Nc2cc(Cl)ccc2CC1[N+](=O)[O-]` (stereo not drawn) registered an IC50 in data set [1] of 410 nM. The compound further yielded a Kb in data set [2] of 6700 nM.

Consider `O=C(O)c1cc(O)c2ccc(Cl)cc2n1` [7-CHLOROKYNURENIC ACID], for which the Kb in data set [2] amounted to 7000 nM.

`O=C(O)c1cc(O)c2c(Cl)cc(Cl)cc2n1` gave an IC50 in data set [1] of 64 nM. This compound registered a Kb in data set [2] of 1900 nM.

For `Oc1nc2cc(Cl)cc(Cl)c2c(O)c1-c1ccccc1`, 97 nM corresponded to half-maximal inhibition in data set [1] (IC50). That is a double-digit nanomolar value.

In data set [1], `Oc1nc2cc(Cl)ccc2c(O)c1C1CCCCC1` showed an IC50 of approximately 100000 nM.

In data set [3], `O=[N+]([O-])c1cc([N+](=O)[O-])c2nc(O)c(O)nc2c1` gave a pKa of 6.5. The compound also registered an IC50 in data set [1] of 170 nM. The compound further yielded a Kb in data set [2] of 1200 nM.

Regarding `COC(=O)c1c(O)c2ccc(Cl)cc2[nH]c1=O`, it took 6500 nM to reach half-maximal inhibition in data set [1] (IC50).

As for `O=C(c1ccccc1)c1c(O)nc2cc(Cl)ccc2c1O`, in data set [1], the half-maximal inhibitory concentration (IC50) was found to be 3200 nM.

`C[C@@H]1CN(O)C(=O)[C@@H]1N` had an IC50 in data set [1] of 2700 nM.

Take `O=c1[nH]c2cc(Cl)ccc2c(O)c1-c1ccccc1`: in data set [3], the pKa was 5.4. This compound came in with an IC50 in data set [1] of 170 nM. The Kb in data set [2] was 880 nM.

Consider `O=c1cc(O)c2ccc(Cl)cc2[nH]1`, for which the IC50 in data set [1] was more than 300000 nM.

Regarding `CCc1cc(Cl)cc2nc(O)c(-c3ccccc3)c(O)c12`, the IC50 in data set [1] worked out at 6.9 nM.

`O=C(O)c1cc(O)c2c(I)cc(Cl)cc2n1` showed an IC50 in data set [1] of 14 nM. In data set [2], this compound gave a Kb of 410 nM.

In data set [3], `O=C(Nc1ccccc1)N[C@H]1C[C@H](C(=O)O)Nc2cc(Cl)cc(Cl)c21` yielded a pKa of approximately 4. The half-inhibitory concentration (IC50) in data set [1] was found to be 4 nM. The Kb in data set [2] turned out to be 110 nM.
